Results taken from patent publication US20230295166A1, “ATR INHIBITORS AND USES THEREOF” (ANTENGENE DISCOVERY LIMITED, priority 2020, published 2023).

Assays:
LoVo (CCL-229) cells = assay: Tumor cell anti-proliferation assay (CTG assay); type: cell-based; settings: LoVo human colorectal cancer cells, 96 h, CellTiter-Glo
Summary of the method: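 Cells seeded and held 20–24 h, then exposed to 3-fold serial dilutions of compound (final DMSO 0.5%) for 96 h at 37 °C, 5% CO2. Viability measured by CellTiter-Glo luminescence; IC50 and GI50 from a 4-parameter logistic fit.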

ATR kinase = ATR kinase (Homo sapiens (Human), UniProt Q13535); assay: ATR inhibition assay (mobility shift assay, phosphorylation of FAM-RAD17); type: biochemical; settings: ATR kinase (Eurofins), substrate FAM-RAD17, mobility shift
Sequence of ATR kinase (Q13535 whole entry): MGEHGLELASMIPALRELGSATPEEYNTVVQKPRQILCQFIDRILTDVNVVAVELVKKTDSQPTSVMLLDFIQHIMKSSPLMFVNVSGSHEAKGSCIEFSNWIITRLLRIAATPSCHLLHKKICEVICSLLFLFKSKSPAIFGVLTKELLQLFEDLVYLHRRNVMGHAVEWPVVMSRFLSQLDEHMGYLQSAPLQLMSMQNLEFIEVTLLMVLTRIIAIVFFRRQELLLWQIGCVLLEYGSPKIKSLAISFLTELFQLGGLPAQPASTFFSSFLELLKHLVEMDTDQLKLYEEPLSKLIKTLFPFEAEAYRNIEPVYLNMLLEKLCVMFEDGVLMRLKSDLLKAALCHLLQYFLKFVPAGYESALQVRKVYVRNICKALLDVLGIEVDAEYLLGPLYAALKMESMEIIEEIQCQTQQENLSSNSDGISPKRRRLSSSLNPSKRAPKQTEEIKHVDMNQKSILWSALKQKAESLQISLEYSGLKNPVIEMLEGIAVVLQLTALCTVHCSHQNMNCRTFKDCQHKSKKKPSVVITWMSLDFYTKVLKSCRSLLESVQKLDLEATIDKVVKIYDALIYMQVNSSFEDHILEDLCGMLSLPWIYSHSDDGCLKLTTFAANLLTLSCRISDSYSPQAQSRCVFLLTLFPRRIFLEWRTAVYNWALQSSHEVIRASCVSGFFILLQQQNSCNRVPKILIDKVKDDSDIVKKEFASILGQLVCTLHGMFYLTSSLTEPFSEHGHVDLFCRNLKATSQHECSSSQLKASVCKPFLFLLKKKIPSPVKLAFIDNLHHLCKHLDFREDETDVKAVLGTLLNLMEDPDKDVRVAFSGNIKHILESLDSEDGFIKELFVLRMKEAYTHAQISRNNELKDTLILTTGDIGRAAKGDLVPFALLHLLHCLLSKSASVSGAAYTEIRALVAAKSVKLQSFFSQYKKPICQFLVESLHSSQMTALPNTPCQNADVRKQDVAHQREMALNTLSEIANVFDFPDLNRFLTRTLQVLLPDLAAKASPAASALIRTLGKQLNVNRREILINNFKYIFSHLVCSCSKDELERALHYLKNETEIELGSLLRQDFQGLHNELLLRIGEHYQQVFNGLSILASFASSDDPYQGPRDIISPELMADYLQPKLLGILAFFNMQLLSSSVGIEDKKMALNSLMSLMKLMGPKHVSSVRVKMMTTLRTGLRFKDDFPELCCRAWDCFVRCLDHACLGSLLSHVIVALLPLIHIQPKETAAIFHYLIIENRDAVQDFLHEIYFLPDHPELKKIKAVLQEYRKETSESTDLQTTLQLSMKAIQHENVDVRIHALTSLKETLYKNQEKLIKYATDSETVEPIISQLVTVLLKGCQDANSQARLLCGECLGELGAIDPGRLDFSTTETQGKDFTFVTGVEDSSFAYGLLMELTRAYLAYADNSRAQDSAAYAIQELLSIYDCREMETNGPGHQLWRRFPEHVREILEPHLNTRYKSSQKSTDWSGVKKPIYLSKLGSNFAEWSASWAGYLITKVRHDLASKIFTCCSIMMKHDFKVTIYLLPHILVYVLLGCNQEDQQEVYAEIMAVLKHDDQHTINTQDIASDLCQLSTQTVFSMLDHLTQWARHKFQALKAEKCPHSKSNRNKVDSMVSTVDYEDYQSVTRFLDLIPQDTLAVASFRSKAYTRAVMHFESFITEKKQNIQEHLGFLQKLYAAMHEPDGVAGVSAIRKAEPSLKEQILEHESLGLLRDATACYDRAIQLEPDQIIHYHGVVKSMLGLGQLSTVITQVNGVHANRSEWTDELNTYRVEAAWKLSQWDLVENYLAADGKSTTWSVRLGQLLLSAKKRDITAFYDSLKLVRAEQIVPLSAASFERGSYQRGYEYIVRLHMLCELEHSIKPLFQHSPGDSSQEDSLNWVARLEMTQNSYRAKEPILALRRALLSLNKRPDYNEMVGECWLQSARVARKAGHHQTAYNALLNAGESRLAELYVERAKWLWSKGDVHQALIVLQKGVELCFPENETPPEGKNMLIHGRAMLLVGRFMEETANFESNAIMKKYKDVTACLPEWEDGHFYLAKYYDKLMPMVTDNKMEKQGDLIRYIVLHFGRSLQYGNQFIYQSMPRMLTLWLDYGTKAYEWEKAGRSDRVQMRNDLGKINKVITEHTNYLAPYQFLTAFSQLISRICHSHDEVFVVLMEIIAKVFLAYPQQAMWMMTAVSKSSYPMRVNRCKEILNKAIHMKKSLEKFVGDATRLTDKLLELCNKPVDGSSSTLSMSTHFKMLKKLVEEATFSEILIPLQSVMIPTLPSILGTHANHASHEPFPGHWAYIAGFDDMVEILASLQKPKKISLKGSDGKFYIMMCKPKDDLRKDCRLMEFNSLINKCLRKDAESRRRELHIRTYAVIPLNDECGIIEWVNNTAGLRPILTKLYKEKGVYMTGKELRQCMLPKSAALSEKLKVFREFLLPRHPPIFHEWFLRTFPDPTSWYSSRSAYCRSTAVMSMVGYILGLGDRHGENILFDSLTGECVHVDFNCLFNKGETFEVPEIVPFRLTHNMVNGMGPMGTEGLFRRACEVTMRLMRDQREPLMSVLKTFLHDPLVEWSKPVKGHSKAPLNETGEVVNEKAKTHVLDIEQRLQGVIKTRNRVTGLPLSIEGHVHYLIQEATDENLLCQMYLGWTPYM
Sequence of ATR kinase (Q8WXE1 whole entry partner): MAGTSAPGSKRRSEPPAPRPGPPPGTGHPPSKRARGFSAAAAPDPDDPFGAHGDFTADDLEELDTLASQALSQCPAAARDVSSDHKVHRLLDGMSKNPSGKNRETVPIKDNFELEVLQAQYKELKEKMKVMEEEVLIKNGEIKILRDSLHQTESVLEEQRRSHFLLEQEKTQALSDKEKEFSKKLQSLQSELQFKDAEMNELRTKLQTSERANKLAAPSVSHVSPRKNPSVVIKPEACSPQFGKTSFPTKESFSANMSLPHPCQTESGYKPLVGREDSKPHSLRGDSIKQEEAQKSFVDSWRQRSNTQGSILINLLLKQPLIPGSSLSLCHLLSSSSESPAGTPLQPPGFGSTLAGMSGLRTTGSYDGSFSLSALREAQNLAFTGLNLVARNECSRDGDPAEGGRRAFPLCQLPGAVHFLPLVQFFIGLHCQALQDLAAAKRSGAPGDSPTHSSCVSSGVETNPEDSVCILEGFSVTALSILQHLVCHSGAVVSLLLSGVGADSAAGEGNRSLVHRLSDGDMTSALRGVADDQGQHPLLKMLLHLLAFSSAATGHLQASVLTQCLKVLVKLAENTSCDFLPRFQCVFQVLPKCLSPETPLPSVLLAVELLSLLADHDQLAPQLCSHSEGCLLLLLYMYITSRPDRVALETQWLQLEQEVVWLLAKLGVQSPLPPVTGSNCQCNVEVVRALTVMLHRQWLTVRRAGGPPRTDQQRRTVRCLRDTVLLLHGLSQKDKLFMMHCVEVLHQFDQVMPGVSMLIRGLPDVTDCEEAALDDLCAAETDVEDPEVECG
Procedure: Assay 1: ATR Inhibition Assay
Detection of ATR kinase activity utilized the Mobility shift assay to measure the phosphorylation of the substrate protein FAM-RAD17 (GL, Cat. No. 514318, Lot. No. P19042-MJ524315). The assay was developed and conducted at Chempartner. All the test compounds were dissolved in 100% DMSO at concentration of 20 mM, then prepare compounds and conducted the assay as follows: • 1) Transfer 80 μl 20 mM compound to 40 μl of 100% DMSO in a 96-well plate. • 2) Serially dilute the compound by transferring 20 μl to 60 μl of 100% DMSO in the next well and so forth for a total of 10 concentrations. • 3) Add 100 μl of 100% DMSO to two empty wells for no compound control and no enzyme control in the same 96-well plate. Mark the plate as source plate. • 4) Transfer 40 μl of compound from source plate to a new 384-well plate as the intermediate plate. • 5) Transfer 60 nl compounds to assay plate by Echo. • 6) Add ATR kinase (Eurofins, Cat. No. 14-953, Lot. No. D14 JP007N) into Kinase base buffer (50 mM HEPES, pH 7.5; 0.0015% Brij-35; 0.01% Triton) to prepare 2× enzyme solution, then add 10 μl of 2× enzyme solution to each well of the 384-well assay plate, incubate at room temperature for 10 min. • 7) Add FAM-RAD17 and ATP (Sigma, Cat. No. A7699-1G, CAS No. 987-65-5) in the kinase base buffer to prepare 2×peptide solution, then add 10 μl to the assay plate. • 8) Incubate at 28° C. for specified period of time. Add 40 μl of stop buffer (100 mM HEPES, pH 7.5; 0.015% Brij-35; 0.2% Coating Reagent #3; 50 mM EDTA) to stop reaction. • 9) Collect data on Caliper. Convert conversion values to inhibition values.
Percent inhibition=(max−conversion)/(max−min)*100 wherein “max” stands for DMSO control; “min” stands for low control.
Fit the data in XLFit excel add-in version 5.4.0.8 to obtain IC50 values. Equation used is:
Y=Bottom+(Top−Bottom)/(1+(IC50/X)^HillSlope) wherein X means concentration in a format not transformed to logarithms.

Row | SMILES | IC50 (LoVo (CCL-229) cells) | IC50 (ATR kinase)
1 | C[C@@H]1COCCN1c1cc(C(C)(C)S(C)(=O)=O)c2snc(-c3ccn[nH]3)c2n1 [Example 55, (R)-3-methyl-4-(7-(2-(methylsulfonyl)propan-2-yl)-3-(1H-pyrazol-5-yl)isothiazolo[4,5-b]pyridin-5-yl)morpholine] | 13.7 nM | < 100 nM
2 | Cc1cc(-c2nsc3c(C(C)(C)S(C)(=O)=O)cc(N4CCOC[C@H]4C)nc23)[nH]n1 [Example 56, (R)-3-methyl-4-(3-(3-methyl-1H-pyrazol-5-yl)-7-(2-(methylsulfonyl)propan-2-yl)isothiazolo[4,5-b]pyridin-5-yl)morpholine] | 19 nM | < 100 nM
3 | Cc1cc(-c2nc(Cl)c3c(-c4ccnn4C)cc(N4CCOC[C@H]4C)nn23)[nH]n1 [Example 62, (3R)-4-[5-chloro-4-(1-methyl-1H-pyrazol-5-yl)-7-(3-methyl-1H-pyrazol-5-yl)imidazo[1,5-b]pyridazin-2-yl]-3-methylmorpholine] | 14.6 nM | < 100 nM
4 | Cc1cc(-c2ncc3c(C4(C#N)CC4)cc(N4CCOC[C@H]4C)nn23)[nH]n1 [Example 63, (R)-1-(7-(3-methyl-1H-pyrazol-5-yl)-2-(3-methylmorpholino)imidazo[1,5-b]pyridazin-4-yl)cyclopropane-1-carbonitrile] | 38.9 nM | < 100 nM
5 | Cc1cc(-c2ncc3c(C(C)(C)C#N)cc(N4CCOC[C@H]4C)nn23)[nH]n1 [Example 64, (R)-2-methyl-2-(7-(3-methyl-1H-pyrazol-5-yl)-2-(3-methylmorpholino)imidazo[1,5-b]pyridazin-4-yl)propanenitrile] | 15.1 nM | < 100 nM
6 | C[C@@H]1COCCN1c1cc(S(=O)(=O)C2CC2)c2snc(-c3ccn[nH]3)c2n1 [Example 75, (R)-4-(7-(cyclopropylsulfonyl)-3-(1H-pyrazol-5-yl)isothiazolo[4,5-b]pyridin-5-yl)-3-methylmorpholine] | 15.3 nM | < 100 nM
7 | C[C@@H]1COCCN1c1cc(N2CCCCS2(=O)=O)c2snc(-c3ccn[nH]3)c2n1 [Example 76, (R)-2-(5-(3-methylmorpholino)-3-(1H-pyrazol-5-yl)isothiazolo[4,5-b]pyridin-7-yl)-1,2-thiazinane 1,1-dioxide] | 24.3 nM | < 100 nM
8 | Cc1cc(-c2nsc3c(C4(C#N)CCCC4)cc(N4CCOC[C@H]4C)nc23)[nH]n1 [Example 80, (R)-1-(3-(3-methyl-1H-pyrazol-5-yl)-5-(3-methylmorpholino)isothiazolo[4,5-b]pyridin-7-yl)cyclopentane-1-carbonitrile] | 10 nM | < 100 nM
9 | Cc1cc(-c2nsc3c(C4(C#N)CCCCC4)cc(N4CCOC[C@H]4C)nc23)[nH]n1 [Example 81, (R)-1-(3-(3-methyl-1H-pyrazol-5-yl)-5-(3-methylmorpholino)isothiazolo[4,5-b]pyridin-7-yl)cyclohexane-1-carbonitrile] | 10 nM | < 100 nM
10 | C[C@@H]1COCCN1c1cc(C2(C#N)CCOCC2)c2snc(-c3ccn[nH]3)c2n1 [Example 83, (R)-4-(5-(3-methylmorpholino)-3-(1H-pyrazol-5-yl)isothiazolo[4,5-b]pyridin-7-yl)tetrahydro-2H-pyran-4-carbonitrile] | 14 nM | < 100 nM

Stronger by IC50 (LoVo (CCL-229) cells), values ahead:

Row | IC50 (LoVo (CCL-229) cells) | IC50 (ATR kinase) | SMILES
11 | 2.5 nM | < 100 nM | C[C@@H]1COCCN1c1cc(C2(C#N)CCCC2)c2snc(-c3ccn[nH]3)c2n1 [Example 57, (R)-1-(5-(3-methylmorpholino)-3-(1H-pyrazol-5-yl)isothiazolo[4,5-b]pyridin-7-yl)cyclopentane-1-carbonitrile]
12 | < 1 nM | < 100 nM | C[C@@H]1COCCN1c1cc(C2(C#N)CCCCC2)c2snc(-c3ccn[nH]3)c2n1 [Example 58, (R)-1-(5-(3-methylmorpholino)-3-(1H-pyrazol-5-yl)isothiazolo[4,5-b]pyridin-7-yl)cyclohexane-1-carbonitrile]
13 | 4.1 nM | < 100 nM | C[C@@H]1COCCN1c1cc(C2(C#N)CCCCC2)c2cnc(-c3ccn[nH]3)n2n1 [Example 60, (R)-1-(2-(3-methylmorpholino)-7-(1H-pyrazol-5-yl)imidazo[1,5-b]pyridazin-4-yl)cyclohexane-1-carbonitrile]
14 | 9 nM | < 100 nM | Cc1cc(-c2nsc3c(C4(C#N)CCOCC4)cc(N4CCOC[C@H]4C)nc23)[nH]n1 [Example 84, (R)-4-(3-(3-methyl-1H-pyrazol-5-yl)-5-(3-methylmorpholino)isothiazolo[4,5-b]pyridin-7-yl)tetrahydro-2H-pyran-4-carbonitrile]
15 | 4 nM | < 100 nM | Cc1cc(-c2nsc3c(S(=O)(=O)C4CC4)cc(N4CCOC[C@H]4C)nc23)[nH]n1 [Example 85, (R)-4-(7-(cyclopropylsulfonyl)-3-(3-methyl-1H-pyrazol-5-yl)isothiazolo[4,5-b]pyridin-5-yl)-3-methylmorpholine]
16 | 3 nM | < 100 nM | Cc1cc(-c2nsc3c(C4(C(N)=O)CCCC4)cc(N4CCOC[C@H]4C)nc23)[nH]n1 [Example 87, (R)-1-(3-(3-methyl-1H-pyrazol-5-yl)-5-(3-methylmorpholino)isothiazolo[4,5-b]pyridin-7-yl)cyclopentane-1-carboxamide]
17 | < 1 nM | < 100 nM | C[C@@H]1COCCN1c1cc(C2(C(N)=O)CCCCC2)c2snc(-c3ccn[nH]3)c2n1 [Example 89, 1-{5-[(3R)-3-methylmorpholin-4-yl]-3-(1H-pyrazol-5-yl)-[1,2]thiazolo[4,5-b]pyridin-7-yl}cyclohexane-1-carboxamide]
